Laboratory results published in patent US20240287093A1, “HIGH ACTIVITY STING PROTEIN AGONIST” (ADLAI NORTYE BIOPHARMA CO., LTD., priority 2018, published 2024).
pEC50: −log10 of the molar value.

Tests used:
Type in all cases: cell-based
STING variants (WT) [1] = biological target: T1, STING variants (WT) (Homo sapiens, UniProt Q86WV6); test: SEAP reporter assay in HEK-Blue ISG KO-STING cells transfected with STING WT variant (Method 1); settings: 24 h
T1 construct: host or cells: HEK-Blue ISG KO-STING cells (Invivogen, hkb-kostg)
Description: (§1) Example I: STING Variants (WT & HAQ) Activation by Compounds in HEK-Blue™ ISG KO-STING Cells (Method 1)
(§2) Activation of STING can be determined using a SEAP reporter assay in HEK-Blue™ ISG KO-STING cells (Invivogen, cat #hkb-kostg) transfected with plasmids expressing STING variants (WT & HAQ) (referred to WO2017/175147A1). STING variants (WT & HAQ) vector were constructed based on STING-232H vector (Origene, RC208418). GFP vector (VT2069) was bought from Youbio. The detailed protocol as follows: HEK-Blue™ ISG KO-STING cells were harvest and seeding into 96 well plate, the final cell number was 0.8×10^5 cells/well. Transfections were prepared using Lipofectamine 2000 (Invitrogen, Cat #11668-027) following the manufacturer's instructions (Lipo2000:DNA=1:10), 20 ul of transfection suspension containing 1 ng STING vector was added to cell culture plate and incubated at 37° C., 5% CO2 for 24 h. After 24 hours incubation, compounds were added at proper concentration, and the final DMSO concentration was 0.5%. After 24 h incubation, the supernatant was collected to detect SEAP signal using Great EscAPe SEAP chemiluminescence KIT (Clontech, cat #631738) and cells were collected to detect cell viability using CellTiter-Glo Luminescent Cell Viability Assay (Promega, cat #G7573) following the manufacturer's instructions. The data were described by the ratio of the stimulating signal of compounds to 0.5% DMSO.

STING variants (HAQ) [2] = biological target: T2, STING variants (HAQ) (Homo sapiens, UniProt Q86WV6, G230A/R293Q/R71H); test: SEAP reporter assay in HEK-Blue ISG KO-STING cells transfected with STING HAQ variant (Method 1); settings: 24 h
T2 construct: host or cells: HEK-Blue ISG KO-STING cells (Invivogen, hkb-kostg)
T2 sequence (Q86WV6 whole entry R71H/G230A/R293Q): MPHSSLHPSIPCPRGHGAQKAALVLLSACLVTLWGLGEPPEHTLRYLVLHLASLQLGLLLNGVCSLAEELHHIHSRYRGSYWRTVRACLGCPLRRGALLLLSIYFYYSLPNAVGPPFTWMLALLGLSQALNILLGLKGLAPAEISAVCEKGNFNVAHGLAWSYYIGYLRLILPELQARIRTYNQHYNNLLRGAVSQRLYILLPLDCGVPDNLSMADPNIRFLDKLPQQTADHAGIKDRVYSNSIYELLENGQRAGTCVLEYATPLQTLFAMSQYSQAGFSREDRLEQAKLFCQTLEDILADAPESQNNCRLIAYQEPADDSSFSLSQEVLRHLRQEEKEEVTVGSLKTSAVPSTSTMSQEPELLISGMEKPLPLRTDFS
Description: as §1, §2

STING = biological target: T3, STING (Homo sapiens, UniProt Q86WV6, G230A/H232R/R293Q/R71H); test: IFNβ release from THP1 by STING activation (hIFNβ ELISA); settings: THP1 cells, 24 h, IFN-β in supernatant; inactive = IFNβ not detected at the maximum concentration of compounds
T3 construct: THP1 was purchased from National Collection of Authenticated Cell Cultures (Cat #TCHu 57); host or cells: THP1
T3 sequence (Q86WV6 whole entry R71H/G230A/H232R/R293Q): as the sequence (Q86WV6 whole entry R71H/G230A/R293Q) above, with H232R counted along it
Procedure: Example III: Compound Stimulate THP1 to Release IFNβ by STING Activation
In this assay, activation of STING by compounds was evaluated by detecting their ability to stimulate the secretion of IFN-β (interferon-beta) from THP1. THP1 was purchased from National Collection of Authenticated Cell Cultures (Cat #TCHu 57). The top dose of compounds was setted according to their solubility. First, Compounds were 3 times diluted with medium, 8-dose points in total. The final DMSO concentration was 0.2%. THP1 during the logarithmic phase was resuspended to 2×10^6 cells/ml in assay medium. The THP1-cell suspension was dispensed into a 96-well U bottom plate containing 50 ul of compound diluted in medium. After 24 h incubation at 37° C., 5% CO2, the supernatant was collected. The concentration of IFN-β in the supernatant was measured using a human IFNβ ELISA KIT (R&D, DY814-05). The data was fitted with GraphPad Prism or XLfit to calculate EC50 values.

STING variants (WT) [3] = biological target: T1, STING variants (WT); test: SEAP reporter assay in HEK-Blue ISG KO-STING cells transfected with STING WT variant (Method 2, 1 ng vector); settings: compound concentration 2.5 (mM as printed); 24 h; SEAP signal ratio to 0.5% DMSO
Description: (§3) Example II: STING Variants (WT & HAQ) Activation by Compounds in HEK-Blue™ ISG KO-STING Cells (Method 2)
as §2, with “96 well plate and the final” for “96 well plate, the final”, “1 ng (WT variant) or 0.0625 ng (HAQ variant) STING vector” for “1 ng STING vector”, “proper concentration, the final” for “proper concentration, and the final”, “0.5%. After 24h incubation, the” for “0.5%. After 24 h incubation, the”, “Cell Viability Assay(Promega, cat #G7573)” for “Cell Viability Assay (Promega, cat #G7573)”

STING variants (HAQ) [4] = biological target: T2, STING variants (HAQ); test: SEAP reporter assay in HEK-Blue ISG KO-STING cells transfected with STING HAQ variant (Method 2, 0.0625 ng vector); settings: compound concentration 5 (mM as printed); 24 h; SEAP signal ratio to 0.5% DMSO
Description: as §3
as §2, with “96 well plate and the final” for “96 well plate, the final”, “1 ng (WT variant) or 0.0625 ng (HAQ variant) STING vector” for “1 ng STING vector”, “proper concentration, the final” for “proper concentration, and the final”, “0.5%. After 24h incubation, the” for “0.5%. After 24 h incubation, the”, “Cell Viability Assay(Promega, cat #G7573)” for “Cell Viability Assay (Promega, cat #G7573)”

| Structure (SMILES) | Fold change related to DMSO control, WT (STING variants (WT) [1]; compound concentration 25 μM) [fold] | Fold change related to DMSO control, HAQ (STING variants (HAQ) [2]; compound concentration 25 μM) [fold] | pEC50 (STING) | hIFNβ ELISA (EC50, μM) (STING) | Fold change related to DMSO control, WT (STING variants (WT) [1]; compound concentration 2.5 μM) [fold] | Fold change related to DMSO control, HAQ (STING variants (HAQ) [2]; compound concentration 5 μM) [fold] | Fold change related to DMSO control, WT (STING variants (WT) [3]) [fold] | Fold change related to DMSO control, HAQ (STING variants (HAQ) [4]) [fold] |
| --- | --- | --- | --- | --- | --- | --- | --- | --- |
| CCn1nc(C)cc1C(=O)Nc1nc2cc(C(N)=O)cc3c2n1CC(C)(C)CO3 [Example 27, 1-(1-Ethyl-3-methyl-1H-pyrazole-5-carboxamido)-8,8-dimethyl-8,9-dihydro-7H-6-oxa-2,9a-diazabenzo[cd]azulene-4-carboxamide] | 2.37 | 56.43 | 4.66 |  |  |  |  |  |
| CCn1nc(C)cc1C(=O)Nc1nc2cc(C(N)=O)cc3c2n1CC1(CC1)O3 [Example 28, 2-(1-Ethyl-3-methyl-1H-pyrazole-5-carboxamido)-3H-5-oxa-1,2a-diazaspiro[acenaphthylene-4,1′-cyclopropan]-1,2a^1(5a),6,8-tetraene-7-carboxamide] | 2.34 | 38.16 |  | inactive |  |  |  |  |
| CCn1nc(C)cc1C(=O)Nc1nc2cc(C(N)=O)cc3c2n1[C@@H](CCCNC(=O)/C=C/c1ccccc1)CO3 [Example 31, (S)-3-(3-Cinnamamidopropyl)-2-(1-ethyl-3-methyl-1H-pyrazole-5-carboxamido)-3,4-dihydro-5-oxa-1,2a-diazaacenaphthylene-7-carboxamide] | 2.71 | 22.11 |  | inactive |  |  |  |  |
| CCn1nc(C)cc1C(=O)Nc1nc2cc(C(N)=O)cc3c2n1[C@@H](CCCNC(=O)OCc1cccnc1)CO3 [Example 32, Pyridin-3-ylmethyl (S)-(3-(7-carbamoyl-2-(1-ethyl-3-methyl-1H-pyrazole-5-carboxamido)-3,4-dihydro-5-oxa-1,2a-diazaacenaphthylen-3-yl)propyl)carbamate] | 1.45 | 2.88 |  | inactive |  |  |  |  |
| CCn1nc(C)cc1C(=O)Nc1nc2cc(C(N)=O)cc3c2n1[C@@H](CCCNC(=O)COc1ccccc1)CO3 [Example 33, (S)-2-(1-ethyl-3-methyl-1H-pyrazole-5-carboxamido)-3-(3-(2-phenoxyacetamido)propyl)-3,4-dihydro-5-oxa-1,2a-diazaacenaphthylene-7-carboxamide] | 2.49 | 20.81 |  | inactive |  |  |  |  |
| CCn1nc(C)cc1C(=O)Nc1nc2cc(C(N)=O)cc3c2n1[C@@H](CCCNC(=O)OCc1ccccc1)CN3C [Example 43, Benzyl (S)-(3-(8-carbamoyl-2-(1-ethyl-3-methyl-1H-pyrazole-5-carbozamido)-6-methyl-5,6-dihydro-4H-imidazo[1,5,4-de]quinoxalin-4-yl)propyl)carbamate] |  |  |  | inactive | 2.02 | 23.88 |  |  |
| CCn1nc(C)c(F)c1C(=O)Nc1nc2cc(C(N)=O)cc3c2n1CC(C)(C)CO3 [Example 44, 1-(1-Ethyl-4-fluoro-3-methyl-1H-pyrazole-5-carboxamido)-8,8-dimethyl-8,9-dihydro-7H-6-oxa-2,9a-diazabenzo[cd]azulene-4-carboxamide] |  |  | 4.70 |  |  |  | 2.48 | 15.38 |
| CCn1nc(C)c(Cl)c1C(=O)Nc1nc2cc(C(N)=O)cc3c2n1CC(C)(C)CO3 [Example 45, 1-(4-Chloro-1-ethyl-3-methyl-1H-pyrazole-5-carboxamido)-8,8-dimethyl-8,9-dihydro-7H-6-oxa-2,9a-diazabenzo[cd]azulene-4-carboxamide] |  |  |  | inactive |  |  | 1.18 | 1.59 |
| CCn1nc(C)c(Br)c1C(=O)Nc1nc2cc(C(N)=O)cc3c2n1CC(C)(C)CO3 [Example 46, 1-(4-Bromo-1-ethyl-3-methyl-1H-pyrazole-5-carboxamido)-8,8-dimethyl-8,9-dihydro-7H-6-oxa-2,9a-diazabenzo[cd]azulene-4-carboxamide] |  |  | < 5.25 |  |  |  | 1.41 | 2.12 |

The next lines start with the values.

| Fold change related to DMSO control, WT (STING variants (WT) [1]; compound concentration 25 μM) [fold] | Fold change related to DMSO control, HAQ (STING variants (HAQ) [2]; compound concentration 25 μM) [fold] | pEC50 (STING) | hIFNβ ELISA (EC50, μM) (STING) | Fold change related to DMSO control, WT (STING variants (WT) [1]; compound concentration 2.5 μM) [fold] | Fold change related to DMSO control, HAQ (STING variants (HAQ) [2]; compound concentration 5 μM) [fold] | Fold change related to DMSO control, WT (STING variants (WT) [3]) [fold] | Fold change related to DMSO control, HAQ (STING variants (HAQ) [4]) [fold] | Structure (SMILES) |
| --- | --- | --- | --- | --- | --- | --- | --- | --- |
|  |  | < 5.28 |  |  |  | 6.91 | 27.64 | CC[C@H]1COc2cc(C(N)=O)cc3nc(NC(=O)c4c(F)c(C)nn4CC)n1c23 [Example 47, (S)-3-Ethyl-2-(1-ethyl-4-fluoro-3-methyl-1H-pyrazole-5-carboxamido)-3,4-dihydro-5-oxa-1,2a-diazaacenaphthylene-7-carboxamide] |
|  |  |  | inactive |  |  | 1.85 | 3.46 | CC[C@H]1COc2cc(C(N)=O)cc3nc(NC(=O)c4c(Cl)c(C)nn4CC)n1c23 [Example 48, (S)-2-(4-Chloro-1-ethyl-3-methyl-1H-pyrazole-5-carboxamido)-3-ethyl-3,4-dihydro-5-oxa-1,2a-diazaacenaphthylene-7-carboxamide] |
|  |  | < 5.60 |  |  |  | 1.49 | 1.94 | CC[C@H]1COc2cc(C(N)=O)cc3nc(NC(=O)c4c(Br)c(C)nn4CC)n1c23 [Example 49, (S)-2-(4-Bromo-1-ethyl-3-methyl-1H-pyrazole-5-carboxamido)-3-ethyl-3,4-dihydro-5-oxa-1,2a-diazaacenaphthylene-7-carboxamide] |
|  |  |  | inactive |  |  | 0.83 | 1.27 | C=CCCCn1nc(C)cc1C(=O)Nc1nc2cc(C(N)=O)cc3c2n1[C@@H](CCCN)CO3 [Example 50, (S)-3-(3-Aminopropyl)-2-(3-methyl-1-(pent-4-en-1-yl)-1H-pyrazole-5-carboxamido)-3,4-dihydro-5-oxa-1,2a-diazaacenaphthylene-7-carboxamide] |
|  |  |  | inactive |  |  | 0.79 | 0.63 | C=Cc1c(C)nn(CC)c1C(=O)Nc1nc2cc(C(N)=O)cc3c2n1[C@@H](CCCN)CO3 [Example 51, (S)-3-(3-Aminopropyl)-2-(1-ethyl-3-methyl-4-vinyl-1H-pyrazole-5-carboxamido)-3,4-dihydro-5-oxa-1,2a-diazaacenaphthylene-7-carboxamide] |
